PubChem BioAssay (NCI)
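Five compound concentrations were applied to cells in 96-well plates for 48 hours; endpoints were derived by simple linear interpolation of the resulting dose-response curve. Definition used: TGI = concentration required for complete inhibition of growth.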

Assays:
Experiment in all cases: NCI-60 cell line screen, 48 h
[1] = system: SK-MEL-5 melanoma
[2] = system: OVCAR-4 ovarian
[3] = system: HS 578T breast
[4] = system: SF-295 CNS
[5] = system: MDA-N
[6] = system: BT-549 breast
[7] = system: SNB-19 CNS
[8] = system: K-562 leukemia
[9] = system: M14 melanoma
[10] = system: NCI-H23 lung
[11] = system: COLO 205 colon
[12] = system: HT29 colon
[13] = system: MALME-3M melanoma
[14] = system: UO-31 renal
[15] = system: OVCAR-5 ovarian
[16] = system: MCF7 breast
[17] = system: CCRF-CEM leukemia
[18] = system: SNB-75 CNS
[19] = system: NCI-H522 lung
[20] = system: LOX IMVI melanoma
[21] = system: SN12C renal
[22] = system: A498 renal
[23] = system: CAKI-1 renal
[24] = system: HCT-116 colon
[25] = system: MDA-MB-231 breast
[26] = system: SK-MEL-2 melanoma
[27] = system: TK-10 renal
[28] = system: UACC-62 melanoma
[29] = system: EKVX NSCLC
[30] = system: A549 NSCLC
[31] = system: KM12 colon
[32] = system: PC-3 prostate
[33] = system: HCC-2998 colon
[34] = system: NCI-H226 lung
[35] = system: NCI-H460 lung
[36] = system: HOP-62 NSCLC
[37] = system: ACHN renal
[38] = system: OVCAR-3 ovarian
[39] = system: OVCAR-8 ovarian
[40] = system: NCI/ADR-RES ovarian
[41] = system: HOP-92 NSCLC
[42] = system: SF-268 CNS
[43] = system: RXF 393 renal
[44] = system: RPMI-8226 leukemia
[45] = system: DU-145 prostate
[46] = system: 786-0 renal
[47] = system: SF-539 CNS
[48] = system: SW-620 colon
[49] = system: MOLT-4 leukemia
[50] = system: MDA-MB-435
[51] = system: SK-MEL-28 melanoma
[52] = system: SR leukemia
[53] = system: IGROV1 ovarian
[54] = system: UACC-257 melanoma
[55] = system: U251 CNS
[56] = system: T-47D breast
[57] = system: SK-OV-3 ovarian
[58] = system: HCT-15 colon
[59] = system: HL-60(TB) leukemia

With `COC(=O)C1OC(O[C@H]2CC[C@]3(C)[C@H]4CC=C5[C@@H]6CC(C)(C)CC[C@]6(C(=O)OC6OCC(O)C(O)C6OC6OC(C)C(OC7OCC(O)C(O)C7O)C(OC7OCC(O)(CO)C7O)C6O)[C@H](O)C[C@@]5(C)[C@]4(C)CC[C@H]3C2(C)C)C(O)C(O)C1O` (some centres undefined) the TGI [1] was 16.6 µM, the TGI [2] was 17.4 µM and the TGI [3] was 28.2 µM. It also gave a TGI [4] of 15.9 µM, a TGI [5] of 4.14 µM and a TGI [6] of 6.55 µM. For the same compound, the TGI [7] was 19 µM, the TGI [8] was > 100 µM and the TGI [9] was 7.41 µM. The TGI [10] was 3.56 µM, the TGI [11] was 2.92 µM and the TGI [12] was 7.16 µM. It also gave a TGI [13] of 15.7 µM, a TGI [14] of 4.62 µM and a TGI [15] of 13.4 µM. The TGI [16] was 3.43 µM, the TGI [17] was > 100 µM and the TGI [18] was 19.5 µM. For the same compound, the TGI [19] was 5.78 µM, the TGI [20] was 20.1 µM and the TGI [21] was 3.6 µM. It also gave a TGI [22] of 3.3 µM, a TGI [23] of 17.5 µM and a TGI [24] of 13.5 µM. It also gave a TGI [25] of 7.56 µM, a TGI [26] of 5.82 µM and a TGI [27] of 29.4 µM. The TGI [28] was 6.08 µM, the TGI [29] was 8.21 µM and the TGI [30] was 12.6 µM. For the same compound, the TGI [31] was 9.49 µM, the TGI [32] was 14.5 µM and the TGI [33] was 3.79 µM. The TGI [34] was 15.5 µM, the TGI [35] was 34.3 µM and the TGI [36] was 10.1 µM. For the same compound, the TGI [37] was 10.1 µM, the TGI [38] was 23.2 µM and the TGI [39] was 24.4 µM. For the same compound, the TGI [40] was 18.2 µM, the TGI [41] was 3.94 µM and the TGI [42] was 24 µM. For the same compound, the TGI [43] was 24.6 µM, the TGI [44] was > 31.1 µM and the TGI [45] was 20.9 µM. The TGI [46] was 20 µM, the TGI [47] was > 100 µM and the TGI [48] was 19.2 µM. The TGI [49] was > 100 µM, the TGI [50] was 3.7 µM and the TGI [51] was 4.69 µM. It also gave a TGI [52] of 6.37 µM, a TGI [53] of 27.1 µM and a TGI [54] of 11.5 µM. For the same compound, the TGI [55] was 19.3 µM, the TGI [56] was 15.3 µM and the TGI [57] was 24.9 µM. It also gave a TGI [58] of 22.2 µM.

In the case of `CC(C)=CC[C@]12CCN(C)[C@H]1N(S(=O)(=O)c1ccccc1)c1ccccc12`, the TGI [2] is reported as > 100 µM, the TGI [3] is reported as > 90 µM and the TGI [59] is reported as > 74.6 µM. The TGI [4] was > 100 µM, the TGI [5] was > 100 µM and the TGI [6] was > 100 µM. The TGI [7] was > 100 µM, the TGI [8] was > 100 µM and the TGI [10] was > 100 µM. The TGI [12] was > 100 µM, the TGI [13] was > 100 µM and the TGI [14] was > 100 µM. For the same compound, the TGI [15] was > 100 µM, the TGI [16] was > 72.9 µM and the TGI [17] was > 100 µM. For the same compound, the TGI [18] was > 100 µM, the TGI [19] was 41.8 µM and the TGI [20] was > 51.6 µM. For the same compound, the TGI [21] was > 100 µM, the TGI [22] was > 100 µM and the TGI [23] was > 100 µM. The TGI [24] was > 100 µM, the TGI [25] was > 100 µM and the TGI [26] was 55.5 µM. For the same compound, the TGI [27] was > 100 µM, the TGI [28] was > 62 µM and the TGI [29] was > 63.9 µM. The TGI [30] was > 100 µM, the TGI [31] was > 100 µM and the TGI [32] was 98.6 µM. The TGI [33] was > 61.4 µM, the TGI [34] was > 100 µM and the TGI [35] was > 73.5 µM. For the same compound, the TGI [36] was > 77.6 µM, the TGI [37] was > 100 µM and the TGI [38] was > 74.4 µM. The TGI [39] was > 100 µM, the TGI [40] was > 100 µM and the TGI [41] was > 79.9 µM. The TGI [42] was > 100 µM, the TGI [43] was > 71.7 µM and the TGI [44] was > 73 µM. For the same compound, the TGI [45] was > 100 µM, the TGI [46] was > 90.9 µM and the TGI [47] was > 100 µM. The TGI [48] was > 100 µM, the TGI [49] was > 100 µM and the TGI [50] was > 71.6 µM. The TGI [51] was > 100 µM, the TGI [52] was > 100 µM and the TGI [53] was > 100 µM. For the same compound, the TGI [54] was > 89.6 µM, the TGI [55] was > 58.2 µM and the TGI [56] was > 76 µM. The TGI [57] was > 100 µM and the TGI [58] was > 100 µM.
